Laboratory results: US5212075A, “Compositions and methods for introducing effectors to pathogens and cells” (priority 1991, dated 1993)

How the values were obtained:
E. coli K1 pilA+::tetR = assay: microbe, parasite or virus in culture; type: cell-based; settings: for IC100: Escherichia coli, 0.05 h, read-out: Concentration causing total inhibition of yeast agglutination; for Relative Inhibitory Activity: concentration of methyl α-D-mannopyranoside divided by the concentration of the compound
Experimental: Compounds 4, 6-9 and 12 were assayed for bacterial receptor binding using agglutination studies with yeast cells and their inhibitory activity was compared to that of methyl α-D-mannopyranoside 13 (Firon et al. (1983) Carbohydrate Research 120:235; Eshdat et al. (1978) Biochem. Biophys. Res. Commun. 85:1551; and Firon et al. (1982) Biochem. Biophys. Res. Commun. 105:1426. The bacterial strain used in our study was a systemically invasive E. coli K1 pilA+::tetR strain that is responsible for sepsis and meningitis in human infants (Bloch et al. (1990) Infection and Immunity 58:275). A summary of the results is given in Table 2.
^a E. coli K1 pilA+::tetR were grown for 24 h at 37° C. on
solid LB media supplemented with tetracycline and were suspended with a
cotton swab in 4 mL of Dulbecco's PBS to a final dilution of 2 ×
10^8 cells/mL. Yeast (Saccharomyces cerevisiae, wild type) were grown
for 36 h on solid YPD media at 30° C. and were suspended with a
cotton swab in 4 mL of Dulbecco's PBS to a final dilution of 1 ×
10^8 cells mL. Protein concentrations were determined by BCA Protein
Assay (Pierce). Agglutination assays were performed on a 20 well ceramic
ring plate. Typically, 90 μl of a solution of the test compound was
combined with 30 μl of the bacterial suspension. After 30 seconds, 30
μl of the yeast suspension was added to give a final volume of 150
μl and the wells were allowed to develop for 3 min. with agitation. A
μl aliquot was removed from each well and spread onto a standard
microscope slide. The slides were quickly heat fixed and mounted with 10
μl of glycerol. The slides were examined under phase contrast at
500× magnification using a Zeiss Axioskip microscope. Agglutination
was observed as clusters of cells. total inhibition of agglutination was
determined by the observation of single cells only.
^b Concentration causing total inhibition of yeast agglutination.

E. coli cell = assay: Localization of protein A-gold particles on the E. coli cell surface by transmission electron microscopy; type: cell-based; settings: avidin, anti-avidin antibodies, protein A labelled with gold particles (15 nm); no localization without hybrid molecule
Text: The particles were bound through a hybrid molecule consisting of a mannose binding moiety attached to biotin through a carbon linkage. Avidin, anti-avidin antibodies, and protein A labelled with the gold particles were exposed to cell and completed a bridge binding the gold particles. The location of a gold particle is shown by the arrow.
FIG. 6 is an electron micrograph showing a strain of E. coli, similar to that illustrated in FIG. 5, in the absence of the hybrid molecule. The cell was exposed to avidin, anti-avidin antibodies, and protein A labelled with gold particles. No localization of the gold particles was achieved without the hybrid molecules.
E coli cells bound with avidin, as described above, were sequentially exposed to anti-avidin antibodies and gold (15 nm) colloidal particles bound to protein A. It was expected that the gold would localize on the E. coli cell surface through an antibody-protein A bridge. Localization on bacterial pili was confirmed by transmission electron microscopy (TEM). The results are shown in FIG. 5 (typical gold particle shown by arrow) and FIG. 6 (control where E. coli cells incubated with protein A-gold without anti-avidin antibody).

complement (Clq) = assay: Binding of complement (Clq) to anti-avidin (IgG2) bound to E. coli through the hybrid molecule
Text: Clq binding is the first step in the complement cascase which is part of the humoral response.

| Compound | IC100 (E. coli K1 pilA+::tetR) [µM] | Relative Inhibitory Activity (E. coli K1 pilA+::tetR) | also measured |
| --- | --- | --- | --- |
| CCC[C@H]1O[C@H](CO)[C@@H](O)[C@H](O)[C@@H]1O [Compound 4] | 7000 | 9.6 |  |
| O=C(O)CC[C@H]1O[C@H](CO)[C@@H](O)[C@H](O)[C@@H]1O [Compound 6] | 47000 | 1.4 |  |
| NCCC[C@H]1O[C@H](CO)[C@@H](O)[C@H](O)[C@@H]1O [Compound 7] | 40000 | 1.7 |  |
| OCCC[C@H]1O[C@H](CO)[C@@H](O)[C@H](O)[C@@H]1O [Compound 8] | 13000 | 5.2 |  |
| O=C(CCCC[C@@H]1SC[C@@H]2NC(=O)N[C@@H]21)NCCC[C@H]1O[C@H](CO)[C@@H](O)[C@H](O)[C@@H]1O [Compound 9] | 7000 | 9.6 | Localization of gold particles on the E. coli surface (TEM) (E. coli cell): localization of gold particles on the surface of an E. coli cell; Clq binding to anti-avidin (IgG2) bound to E. coli (complement (Clq)): has also been shown |
| CCC[C@@H]1O[C@H](CO)[C@@H](O)[C@H](O)[C@@H]1O [Compound 12] |  |  | Inhibitory activity on agglutination (E. coli K1 pilA+::tetR; at a concentration of 100 mM): no inhibitory activity |
| CO[C@H]1O[C@H](CO)[C@@H](O)[C@H](O)[C@@H]1O [Compound 13, methyl α-D-mannopyranoside, reference compound] | 67000 | 1 |  |
| O=[N+]([O-])c1ccc(O[C@H]2O[C@H](CO)[C@@H](O)[C@H](O)[C@@H]2O)cc1 [Compound 14, reference compound] | 1600 | 42 |  |
| avidin: avidin alone, a soluble glycosylated protein used in place of streptavidin [reference compound] |  |  | Concentration causing total inhibition of yeast agglutination (E. coli K1 pilA+::tetR; E. coli K1 pilA+::tetR with Saccharomyces cerevisiae, 3 min, single cells only under phase contrast): 0.4 mM |
